Experimental findings from ChEMBL document CHEMBL1201862, “PubChem BioAssay data set” (2004) are described below.

Some test systems named below: UO-31; HCT-15; HCT-116; SK-MEL-28; TK-10; U-251; T47D; PC-3; SW-620; HL-60; SNB-75; HOP-92; UACC-62; UACC-257; SN12C; MCF7; MDA-N; ACHN; SK-MEL-2.
What all share (test): inhibition of tumour cell growth, NCI panel, 48 h

Where “and” joins values, the source holds several entries; their conditions need not be identical. Equal entries are not always repeated.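 96-well plates; 48 h exposure; 5 concentrations. Endpoints by linear interpolation between flanking doses. Not reached: highest tested concentration assigned. GI50 marks 50% less growth.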 Calls of active or inactive are those of the source. Cut-off read from the data, not from the text of the source: active = GI50 up to about 1.1 µM and inactive = higher.

Take `Cc1cccc(C[C@@]2(SCc3ccccc3)C(C)(C)[C@@H]3CC[C@@]2(C)C3)n1`: the GI50 was 19.4 µM (inactive) in the assay on UO-31; 13.8 µM in the assay with HCT-15; 14.7 µM (inactive) in the assay with HCT-116; 19.5 µM (inactive) in the assay with SK-MEL-28; 17.6 µM (inactive) in the assay on TK-10; 16.6 µM (inactive) in the assay with U-251. The GI50 in the assay on T47D was 7.26 µM (inactive); in the assay on PC-3, 20 µM (inactive); in the assay with SW-620, 15 µM (inactive); in the assay on HL-60 it was 13.3 µM (inactive); in the assay with SNB-75, 15.2 µM (inactive); in the assay with HOP-92, 14.3 µM (inactive). For the same compound, the GI50 in the assay on UACC-62 is 13.7 µM (inactive); in the assay with UACC-257, 14.1 µM (inactive); in the assay on SN12C, 16.3 µM (inactive); with MCF7, 13.9 µM (inactive); in the assay with MDA-N, 24.5 µM (inactive); in the assay on ACHN, 15.5 µM (inactive). Further, in the assay with SK-MEL-2, the GI50 is 13.9 µM (inactive).

As to `Cc1c(O)c(OC2OC(CO)C(O)C(O)C2O)cc2c1C=C[C@@H]1[C@@]2(C)C(=O)C[C@]2(C)[C@@H]([C@@](C)(O)C(O)/C=C/C(C)(C)O)[C@H](O)C[C@@]12C` (stereo not given in full), the GI50 in the assay with UO-31 is > 100 µM (inactive); with HCT-15, greater than 100 µM; in the assay on HCT-116 it was > 100 µM (inactive); in the assay with SK-MEL-28, > 100 µM (inactive); with TK-10, > 100 µM (inactive); in the assay on U-251, > 100 µM (inactive). For the same compound, the GI50 with T47D, in the assay with PC-3, with SW-620, in the assay with HL-60, in the assay on SNB-75 and in the assay on HOP-92 was > 100 µM (inactive) each time. The GI50 in the assay on UACC-62, in the assay on UACC-257, in the assay with SN12C, with MCF7, in the assay on MDA-N and in the assay with ACHN was > 100 µM (inactive) each time. In the assay on SK-MEL-2, the GI50 was > 100 µM (inactive).

With `O=[N+]([O-])/C(Cl)=C/C(=C1/Nc2ccccc2O1)[N+](=O)[O-]`, the GI50 in the assay on UO-31 is 15.7 µM (inactive); in the assay with HCT-15 it was 16.6 µM; with HCT-116 it was 13.9 µM (inactive); in the assay on SK-MEL-28, 19.5 µM (inactive); in the assay with TK-10 it was 44.1 µM (inactive); in the assay on U-251, 12.8 µM (inactive). For the same compound, the GI50 is 32.6 µM (inactive) with T47D; 14.1 µM (inactive) with PC-3; 32.7 µM (inactive) with SW-620; 11.6 µM (inactive) with HL-60; 14.1 µM (inactive) with SNB-75; 24.7 µM (inactive) in the assay on HOP-92. The GI50 in the assay on UACC-62 is 23.4 µM (inactive); in the assay with UACC-257, 5.79 µM (inactive); in the assay with SN12C it was 36.1 µM (inactive); with MCF7, 29.6 µM (inactive); in the assay on MDA-N it was 18.5 µM (inactive); in the assay on ACHN, 18.1 µM (inactive).

For the compound `CCCCCC#CCOC(=O)C(=[N+]=[N-])P(=O)(c1ccccc1)c1ccccc1`, the GI50 was > 10 µM (inactive) in the assay with UO-31; greater than 10 µM with HCT-15; 8.26 µM (inactive) in the assay with HCT-116; > 10 µM (inactive) in the assay on SK-MEL-28; > 10 µM (inactive) in the assay on TK-10; > 10 µM (inactive) in the assay with U-251. Also, the GI50 with T47D, in the assay with PC-3, in the assay with SW-620, in the assay on HL-60, with SNB-75 and with HOP-92 was > 10 µM (inactive) each time. Besides, the GI50 in the assay with UACC-62, in the assay with UACC-257, with SN12C, in the assay on MCF7, with MDA-N and with ACHN was > 10 µM (inactive) in each case.

On to `COc1ccc(-c2nnc3n(Cc4ccccc4)c4ccccc4n3c2=O)cc1`, for which the GI50 with UO-31 is 39.9 µM (inactive); with HCT-15, greater than 100 µM; in the assay with HCT-116 it was 38.7 µM (inactive); with SK-MEL-28, 36.4 µM (inactive); in the assay with TK-10, 21.9 µM (inactive); with U-251, 19.9 µM (inactive). Besides, the GI50 in the assay on T47D was 45.6 µM (inactive); with PC-3 it was 5.92 µM (inactive); with SW-620, > 100 µM (inactive); in the assay with HL-60, > 100 µM (inactive); in the assay with SNB-75 it was 11.9 µM (inactive); with HOP-92 it was 19.4 µM (inactive). Moreover, the GI50 was 37.4 µM (inactive) in the assay on UACC-257; 55 µM (inactive) in the assay on SN12C; 29.4 µM (inactive) in the assay with MCF7; > 100 µM (inactive) in the assay with MDA-N; 15.2 µM (inactive) with ACHN; 14.8 µM (inactive) in the assay on SK-MEL-2.

Take `Cc1nn(C)c2nc3ccc(Cl)cc3c(-c3ccccc3)c12`: the GI50 with UO-31 was > 100 µM (inactive); in the assay with HCT-15, greater than 100 µM; in the assay on HCT-116 it was > 100 µM (inactive); in the assay on SK-MEL-28 it was > 100 µM (inactive); in the assay on U-251 it was > 100 µM (inactive); in the assay with T47D it was > 100 µM (inactive). The GI50 in the assay on PC-3, in the assay with SW-620, with HL-60, in the assay on SNB-75, with HOP-92 and in the assay with UACC-62 was > 100 µM (inactive) in each case. Besides, the GI50 in the assay on UACC-257, with SN12C, with MCF7, with MDA-N, in the assay with ACHN and in the assay with SK-MEL-2 was > 100 µM (inactive) in each case.

As for `COc1ccc2[nH]cc([C@@H]3C4CCC(C4)[C@H]3NCc3cccc(CN[C@H]4C5CCC(C5)[C@@H]4c4c[nH]c5ccc(OC)cc45)c3)c2c1`, the GI50 in the assay with UO-31 was 1.36 µM (inactive) and 1.52 µM (inactive); with HCT-15, 0.791 µM and 0.998 µM; in the assay on HCT-116, 766 nM (active) and 678 nM (active); in the assay with TK-10 it was 1.63 µM (inactive) and 1.51 µM (inactive); with T47D, 1.72 µM (inactive) and 1.99 µM (inactive); in the assay on PC-3, 1.29 µM (inactive) and 1.46 µM (inactive). The GI50 in the assay on SW-620 was 238 nM (active) and 384 nM (active); with HL-60 it was 214 nM (active) and 191 nM (active); in the assay on SNB-75, 1.26 µM (inactive) and 1.22 µM (inactive); with HOP-92, 1.1 µM (active) and 1.31 µM (inactive); in the assay on UACC-62, 1.8 µM (inactive) and 1.75 µM (inactive); in the assay on UACC-257, 1.38 µM (inactive) and 1.64 µM (inactive). For the same compound, the GI50 with SN12C is 1.1 µM (active) and 1.51 µM (inactive); with MCF7 it was 1.5 µM (inactive) and 1.01 µM (active); with MDA-N, 1.15 µM (inactive) and 933 nM (active); in the assay with ACHN, 1.76 µM (inactive) and 1.16 µM (inactive); in the assay with SK-MEL-2, 1.59 µM (inactive) and 1.55 µM (inactive).

`O=C(/C=C/c1ccc(O)cc1)c1cc(O)cc(O)c1`: the GI50 with UO-31 is 10 µM (inactive); with HCT-15, 5.4 µM; in the assay with HCT-116, 13.2 µM (inactive); with SK-MEL-28 it was 21.2 µM (inactive); with TK-10 it was 24.4 µM (inactive); in the assay with U-251, 14.5 µM (inactive). Moreover, the GI50 was 14.6 µM (inactive) with T47D; 11.1 µM (inactive) with PC-3; 1.92 µM (inactive) with HL-60; 17.6 µM (inactive) in the assay on SNB-75; 14.3 µM (inactive) in the assay with HOP-92; 10.4 µM (inactive) in the assay on UACC-62. The GI50 in the assay on UACC-257 was 16.3 µM (inactive); in the assay on SN12C, 15.2 µM (inactive); with MCF7, 3.54 µM (inactive); with MDA-N it was 11.9 µM (inactive); in the assay on ACHN, 6.79 µM (inactive); in the assay on SK-MEL-2, 18.1 µM (inactive).
